# Tests used:
# [1] = biological target: T1, Muscarinic acetylcholine receptor M2 (Homo sapiens, UniProt P08172); assay: Agonist activity at human muscarinic M2 receptor expressed in CHO cells
# T1 sequence (P08172 whole entry): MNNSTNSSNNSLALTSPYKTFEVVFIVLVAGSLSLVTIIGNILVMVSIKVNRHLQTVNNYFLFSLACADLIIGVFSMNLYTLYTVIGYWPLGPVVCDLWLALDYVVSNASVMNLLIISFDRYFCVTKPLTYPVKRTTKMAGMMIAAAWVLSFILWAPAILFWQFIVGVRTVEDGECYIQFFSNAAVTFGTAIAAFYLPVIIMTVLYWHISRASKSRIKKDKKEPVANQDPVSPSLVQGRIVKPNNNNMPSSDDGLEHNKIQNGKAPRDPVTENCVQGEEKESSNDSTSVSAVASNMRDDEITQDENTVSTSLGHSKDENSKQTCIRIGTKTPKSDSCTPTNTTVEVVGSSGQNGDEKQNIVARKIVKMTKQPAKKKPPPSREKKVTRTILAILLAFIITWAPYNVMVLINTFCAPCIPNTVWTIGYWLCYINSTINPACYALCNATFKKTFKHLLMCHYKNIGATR
# [2] = biological target: T2, Muscarinic acetylcholine receptor M5 (Homo sapiens, UniProt P08912); assay: Agonist activity at human muscarinic M5 receptor expressed in CHO cells
# T2 sequence (P08912 whole entry): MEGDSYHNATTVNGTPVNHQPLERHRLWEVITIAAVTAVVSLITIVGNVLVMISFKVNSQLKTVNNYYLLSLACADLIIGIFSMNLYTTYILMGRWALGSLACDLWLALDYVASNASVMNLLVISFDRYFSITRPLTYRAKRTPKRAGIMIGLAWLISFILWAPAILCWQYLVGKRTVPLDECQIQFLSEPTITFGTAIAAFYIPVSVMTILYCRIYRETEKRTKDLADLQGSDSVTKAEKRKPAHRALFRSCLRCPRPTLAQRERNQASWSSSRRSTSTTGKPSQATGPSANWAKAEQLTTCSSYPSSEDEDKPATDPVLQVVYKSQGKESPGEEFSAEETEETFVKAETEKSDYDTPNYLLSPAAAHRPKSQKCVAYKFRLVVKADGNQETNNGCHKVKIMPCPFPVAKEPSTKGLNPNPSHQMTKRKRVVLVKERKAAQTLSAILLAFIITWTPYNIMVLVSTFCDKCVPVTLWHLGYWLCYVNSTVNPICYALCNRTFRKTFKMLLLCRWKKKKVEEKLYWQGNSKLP
Structure (SMILES),EC50 [1] [µM],EC50 [2] [µM]
C[C@H]1COC[C@@H](C[N+](C)(C)C)O1,37.1,3.71
C[C@@H]1COC[C@H](C[N+](C)(C)C)O1,15.4,–
CC1COCC(C[N+](C)(C)C)O1 (centres undefined),–,7.94

# Source: BindingDB's records for doi:10.1016/j.bmc.2006.10.040 (University of Camerino, 2007)
